# Source: the supplement of paper PMC12137928
# Counter-ions that a name gives are not always drawn.
# Test system: HCT116
# Details: 72 h
# Outline: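 HCT116 cells were seeded at 250 per well in 1536-well plates with 5 h allowed for attachment. CellTiter-Glo luminescence was normalized against vehicle (0%) and positive control (-100%) before pattern correction. The IC50 and maximal efficacy figures derive from four-parameter Hill fits.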
Structure (SMILES),IC50 cell viability (ICRF193 0 nM) [µM],IC50 cell viability (ICRF193 200 nM) [µM]
CC(=O)O[C@H]1C[C@@H]2CC[C@@H]3[C@H](CC[C@@]4(C)[C@H]3C[C@H]([N+]3(C)CCCCC3)[C@@H]4OC(C)=O)[C@@]2(C)C[C@@H]1N1CCCCC1 [Vecuronium bromide],> 45.8,> 45.8
COc1ccc(C(CN(C)C)C2(O)CCCCC2)cc1 (centres undefined) [Venlafaxine],> 45.8,> 45.8
C=CC(N)CCC(=O)O (centres undefined) [Vigabatrin],> 45.8,> 45.8
N#C[C@@H]1CCCN1C(=O)CNC12CC3CC(CC(O)(C3)C1)C2 [Vildagliptin],> 45.8,> 45.8
OCC(CO)N[C@H]1C[C@](O)(CO)[C@@H](O)[C@H](O)[C@H]1O [Voglibose],> 45.8,> 45.8
FC(F)(F)c1cccc(C2=CCN(CCc3ccc4ccccc4c3)CC2)c1 [Xaliproden hydrochloride],> 45.8,> 45.8
CC1=C[C@H](O)CC(C)(C)[C@H]1/C=C/C(C)=C/C=C/C(C)=C/C=C/C=C(C)/C=C/C=C(C)/C=C/C1=C(C)C[C@@H](O)CC1(C)C [Xanthophyll],> 45.8,> 45.8
Cc1cccc(C)c1NC1=NCCCS1 [Xylazine],> 45.8,> 45.8
C=CCCCCCCCCC(=O)[O-].C=CCCCCCCCCC(=O)[O-].[Zn+2] [ZINC UNDECYLENATE],> 45.8,> 45.8
CC1=C(/C=C/C(C)=C/C=C/C(C)=C/C=C/C=C(C)/C=C/C=C(C)/C=C/C2=C(C)C[C@@H](O)CC2(C)C)C(C)(C)C[C@H](O)C1 [Zeaxanthin],> 45.8,> 45.8
Oc1ccc([C@@H]2CNCc3c2ccc(O)c3O)cc1O [Zelandopam],> 45.8,> 45.8
CC(C)NC1CCn2c(=O)[nH]c3cccc(c32)C1O (centres undefined) [Zilpaterol·HCl],> 45.8,> 45.8
CCCCN(CCCC)C(=S)[S-].CCCCN(CCCC)C(=S)[S-].[Zn+2] [Zinc dibutyldithiocarbamate],> 45.8,> 45.8
Cc1nn(C)c2c1C(c1ccccc1F)=NCC(=O)N2C [Zolazepam Hydrochloride],> 45.8,> 45.8
O=P(O)(O)C(O)(Cn1ccnc1)P(=O)(O)O [Zoledronic acid monohydrate],> 45.8,> 45.8
NC(=O)CCCCC1CCSS1 (stereo not drawn) [alpha-Lipoic acid amide],> 45.8,> 45.8
O=C(O)CCCCC1CCSS1 (stereo not drawn) [alpha-Lipoic acid],> 45.8,> 45.8
CC1=C2[C@H]3OC(=O)[C@@H](C)[C@@H]3CC[C@@]2(C)C=CC1=O [alpha-Santonin],> 45.8,> 45.8
CC1=C(/C=C/C(C)=C/C=C/C(C)=C/C=C/C=C(C)/C=C/C=C(C)/C=C/C2=C(C)CCCC2(C)C)C(C)(C)CCC1 [beta-Carotene],> 45.8,> 45.8
O=P(O)(O)OC(CO)CO [beta-Glycerol phosphate disodium salt pentahydrate],> 45.8,> 45.8
OC[C@@H]1NC[C@@H](O)[C@H](O)[C@H]1O [deoxynorjrimycin(1)],> 45.8,> 45.8
COc1cccc(C(=O)CCN[C@@H](C)[C@H](O)c2ccccc2)c1 [l-Oxyfedrine hydrochloride],> 45.8,> 45.8
O[C@H]1[C@H](O)[C@@H](O)[C@H](O)[C@@H](O)[C@H]1O [myo-Inositol],> 45.8,> 45.8
Cc1ccccc1O [o-Cresol],> 45.8,> 45.8
"Clc1ccc(C(c2ccc(Cl)cc2)C(Cl)(Cl)Cl)cc1 [p,p'-DDT]",> 45.8,> 45.8
"CC1(O)CCC(C(C)(C)O)CC1 (centres undefined) [p-Menthane-1,8-diol monohydrate]",> 45.8,> 45.8

# Results, then the compound that gave them:
IC50 cell viability (ICRF193 0 nM) [µM],IC50 cell viability (ICRF193 200 nM) [µM],Structure (SMILES)
> 45.8,> 45.8,COC[C@H]1C[C@@H](c2nc(-c3ccc4c(c3)COc3cc5c(ccc6nc([C@@H]7CC[C@H](C)N7C(=O)[C@@H](NC(=O)OC)C(C)C)[nH]c65)cc3-4)c[nH]2)N(C(=O)[C@H](NC(=O)OC)c2ccccc2)C1 [Velpatasvir]
> 45.8,> 45.8,CCCS(=O)(=O)Nc1ccc(F)c(C(=O)c2c[nH]c3ncc(-c4ccc(Cl)cc4)cc23)c1F [Vemurafenib]
> 45.8,> 45.8,CC1(C)CCC(CN2CCN(c3ccc(C(=O)NS(=O)(=O)c4ccc(NCC5CCOCC5)c([N+](=O)[O-])c4)c(Oc4cnc5[nH]ccc5c4)c3)CC2)=C(c2ccc(Cl)cc2)C1 [Venetoclax (ABT-199)]
> 45.8,> 45.8,COc1ccc(C(=O)N2CCN(c3ccc4c(c3)CCC(=O)N4)CC2)cc1OC [Vesnarinone]
> 45.8,> 45.8,N#Cc1ccc2[nH]cc(CCCCN3CCN(c4ccc5oc(C(N)=O)cc5c4)CC3)c2c1 [Vilazodone Hydrochloride]
> 45.8,> 45.8,CCOC(=O)C1=C[C@]2(CC)CCCN3CCc4c(n1c1ccccc41)[C@@H]32 [Vinpocetine]
> 45.8,> 45.8,CS(=O)(=O)c1ccc(C(=O)Nc2ccc(Cl)c(-c3ccccn3)c2)c(Cl)c1 [Vismodegib]
> 45.8,> 45.8,Cc1ncc(CO)c(CO)c1O [Vitamin B6]
> 45.8,> 45.8,CCOC(=O)N[C@@H]1CC[C@@H]2[C@@H](C1)C[C@H]1C(=O)O[C@H](C)[C@H]1[C@H]2/C=C/c1ccc(-c2cccc(F)c2)cn1 [Vorapaxar Sulfate]
> 45.8,> 45.8,C[C@@H](c1ncncc1F)[C@](O)(Cn1cncn1)c1ccc(F)cc1F [Voriconazole]
> 45.8,> 45.8,CC(=O)CC(c1ccccc1)c1c(O)c2ccccc2oc1=O (centres undefined) [Warfarin sodium]
> 45.8,> 45.8,COC(=O)C1=C(C)NC(C)=C(C(=O)OCCc2ccc(N3CCN(C(c4ccccc4)c4ccccc4)CC3)cc2)C1c1cccc([N+](=O)[O-])c1 (centres undefined) [Watanidipine]
> 45.8,> 45.8,CCOC(=O)CN[C@@H](C(=O)N1CC[C@H]1C(=O)NCc1ccc(/C(N)=N\O)cc1)C1CCCCC1 [Ximelagatran]
> 45.8,> 45.8,Cc1cccc(C)c1NC(=O)c1cc(S(N)(=O)=O)c(Cl)cc1O [Xipamide]
> 45.8,> 45.8,Cc1cc(C(C)(C)C)cc(C)c1CC1=NCCN1 [Xylometazoline hydrochloride]
> 45.8,> 45.8,COC(=O)[C@@H]1[C@H]2C[C@H]3c4[nH]c5ccccc5c4CCN3C[C@@H]2CC[C@@H]1O [Yohimbine]
> 45.8,> 45.8,COc1cc(C(=O)NS(=O)(=O)c2ccccc2C)ccc1Cc1cn(C)c2ccc(NC(=O)OC3CCCC3)cc12 [Zafirlukast]
> 45.8,> 45.8,CC(C(=O)O)c1ccc2c(c1)CC(=O)c1ccccc1S2 (centres undefined) [Zaltoprofen]

IC50 cell viability (ICRF193 0 nM) [µM],IC50 cell viability (ICRF193 200 nM) [µM],Structure (SMILES)
> 45.8,> 45.8,CC(=O)N[C@H]1[C@H]([C@H](O)[C@H](O)CO)OC(C(=O)O)=C[C@@H]1NC(=N)N [Zanamivir]
> 45.8,> 45.8,O=C(CCC1CCN(Cc2ccccc2)CC1)c1ccc2c(c1)NCCCC2 [Zanapezil fumerate]
> 45.8,> 45.8,CC(c1cc2ccccc2s1)N(O)C(N)=O (centres undefined) [Zileuton]
> 45.8,> 45.8,O=C1Cc2cc(CCN3CCN(c4nsc5ccccc45)CC3)c(Cl)cc2N1 [Ziprasidone]
> 45.8,> 45.8,Cc1c(C(N)=O)cc([N+](=O)[O-])cc1[N+](=O)[O-] [Zoalene]
> 45.8,> 45.8,C[C@H](CSC(=O)c1ccccc1)C(=O)N1C[C@@H](Sc2ccccc2)C[C@H]1C(=O)O [Zofenopril]
> 45.8,> 45.8,CN(C)CCc1c[nH]c2ccc(C[C@H]3COC(=O)N3)cc12 [Zolmitriptan]
> 45.8,> 45.8,NS(=O)(=O)Cc1noc2ccccc12 [Zonisamide]
> 45.8,> 45.8,CN(C)CCOC1=Cc2ccccc2Sc2ccc(Cl)cc21 [Zotepine]
> 45.8,> 45.8,OCCN1CCN(CCC=C2c3ccccc3Sc3ccc(Cl)cc32)CC1 [Zuclopenthixol (-)-10-Camphorsulfonic Acid Salt]
> 45.8,> 45.8,CCCCCCCCCC(=O)OCCN1CCN(CC/C=C2/c3ccccc3Sc3ccc(Cl)cc32)CC1 [Zuclopenthixol Decanoate]
> 45.8,> 45.8,C=C(C)[C@H]1CC=C(C)CC1 [d-LIMONENE]
> 45.8,> 45.8,N[C@H](Cc1c[nH]c2ccccc12)C(=O)O [d-Tryptophan]
> 45.8,> 45.8,COc1cc(/C=C/C(=O)O[C@H]2CC[C@]34C[C@]35CC[C@]3(C)[C@@H]([C@H](C)CCC=C(C)C)CC[C@@]3(C)[C@@H]5CC[C@H]4C2(C)C)ccc1O [gamma-Oryzanol]
> 45.8,> 45.8,Cc1cccc(O)c1 [m-Cresol]
> 45.8,> 45.8,CC(=O)Oc1cccc(C)c1 [m-Cresyl acetate]
> 45.8,> 45.8,Nc1cc(Cl)c(NC2=NCCN2)c(Cl)c1 [p-Aminoclonidine hydrochloride]
> 45.8,> 45.8,Cc1ccc(O)cc1 [p-Cresol]
